# In patent US11547697B2, “Heterocyclic compounds and uses thereof” (MILLENNIUM PHARMACEUTICALS, INC., priority 2009, dated 2023):
# Where two headings read alike, the source gives them in different places.
# Key:
# Format in all cases: biochemical
# p110α/p85α = p110α/p85α (Homo sapiens (Human), UniProt P42336); test: PI 3-Kinase (human) HTRF assay, p110α/p85α
# p110β/p85α = p110β/p85α (Homo sapiens (Human), UniProt P42338); test: PI 3-Kinase (human) HTRF assay, p110β/p85α
# p110δ/p85α = p110δ/p85α (Homo sapiens (Human), UniProt O00329); test: PI 3-Kinase (human) HTRF assay, p110δ/p85α
# Chain of p110δ/p85α (O00329 whole entry): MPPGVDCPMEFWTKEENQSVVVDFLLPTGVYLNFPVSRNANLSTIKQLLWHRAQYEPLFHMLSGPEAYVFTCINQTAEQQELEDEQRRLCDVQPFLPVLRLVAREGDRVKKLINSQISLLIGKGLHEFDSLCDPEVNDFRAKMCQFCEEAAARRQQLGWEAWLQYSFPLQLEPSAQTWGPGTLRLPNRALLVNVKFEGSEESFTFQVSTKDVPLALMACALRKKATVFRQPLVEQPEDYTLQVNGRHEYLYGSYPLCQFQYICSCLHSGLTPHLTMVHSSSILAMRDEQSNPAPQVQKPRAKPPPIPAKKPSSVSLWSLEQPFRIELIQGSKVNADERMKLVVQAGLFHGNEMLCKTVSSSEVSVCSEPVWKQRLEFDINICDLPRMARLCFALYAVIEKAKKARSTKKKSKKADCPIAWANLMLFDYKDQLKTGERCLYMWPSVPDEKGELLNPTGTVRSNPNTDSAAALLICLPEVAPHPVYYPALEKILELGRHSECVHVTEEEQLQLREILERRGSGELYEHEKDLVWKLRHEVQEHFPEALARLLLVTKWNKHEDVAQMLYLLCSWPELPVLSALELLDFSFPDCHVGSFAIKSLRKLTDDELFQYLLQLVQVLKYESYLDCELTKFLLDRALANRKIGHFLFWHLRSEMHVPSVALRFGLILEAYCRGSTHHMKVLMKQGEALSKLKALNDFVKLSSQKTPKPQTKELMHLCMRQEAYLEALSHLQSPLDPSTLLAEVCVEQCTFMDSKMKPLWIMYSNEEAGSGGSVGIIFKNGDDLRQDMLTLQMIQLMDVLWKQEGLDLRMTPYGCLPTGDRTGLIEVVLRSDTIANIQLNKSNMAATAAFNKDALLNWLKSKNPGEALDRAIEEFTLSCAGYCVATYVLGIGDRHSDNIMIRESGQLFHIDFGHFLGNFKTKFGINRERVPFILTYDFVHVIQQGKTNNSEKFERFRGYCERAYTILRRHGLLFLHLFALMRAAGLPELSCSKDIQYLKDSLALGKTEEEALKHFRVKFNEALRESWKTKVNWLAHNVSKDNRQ
# Chain of p110δ/p85α (P27986 whole entry partner): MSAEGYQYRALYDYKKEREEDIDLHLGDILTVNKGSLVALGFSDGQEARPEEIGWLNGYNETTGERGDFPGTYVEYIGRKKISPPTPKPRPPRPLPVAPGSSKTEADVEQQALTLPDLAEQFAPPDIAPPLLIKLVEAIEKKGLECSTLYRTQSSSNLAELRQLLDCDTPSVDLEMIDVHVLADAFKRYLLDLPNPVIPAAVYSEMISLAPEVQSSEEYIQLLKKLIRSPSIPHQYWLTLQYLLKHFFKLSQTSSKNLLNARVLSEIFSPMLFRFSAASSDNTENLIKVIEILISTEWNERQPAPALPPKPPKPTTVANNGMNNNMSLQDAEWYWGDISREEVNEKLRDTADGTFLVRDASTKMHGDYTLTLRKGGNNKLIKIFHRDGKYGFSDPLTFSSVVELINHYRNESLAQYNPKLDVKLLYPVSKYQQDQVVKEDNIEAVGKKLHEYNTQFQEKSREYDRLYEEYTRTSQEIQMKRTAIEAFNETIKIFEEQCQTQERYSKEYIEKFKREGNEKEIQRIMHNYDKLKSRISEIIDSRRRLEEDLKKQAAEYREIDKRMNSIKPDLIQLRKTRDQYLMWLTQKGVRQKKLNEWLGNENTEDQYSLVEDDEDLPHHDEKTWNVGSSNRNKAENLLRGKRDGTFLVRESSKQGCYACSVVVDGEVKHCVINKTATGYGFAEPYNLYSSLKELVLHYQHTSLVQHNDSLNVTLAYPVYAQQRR
# Procedure: An exemplary system is PI 3-Kinase (human) HTRF™ Assay from Upstate. […] Briefly, the assay is a time resolved FRET assay that indirectly measures PIP3 product formed by the activity of a PI3-K. The kinase reaction is performed in a microtitre plate (e.g., a 384 well microtitre plate). The total reaction volume is approximately 20 ul per well. In the first step, each well receives 2 ul of test compound in 20% dimethylsulphoxide resulting in a 2% DMSO final concentration. Next, approximately 14.5 ul of a kinase/PIP2 mixture (diluted in 1× reaction buffer) is added per well for a final concentration of 0.25-0.3 ug/ml kinase and 10 μM PIP2. The plate is sealed and incubated for 15 minutes at room temperature. To start the reaction, 3.5 ul of ATP (diluted in 1× reaction buffer) is added per well for a final concentration of 10 μM ATP. The plate is sealed and incubated for 1 hour at room temperature. The reaction is stopped by adding 5 ul of Stop Solution per well and then 5 ul of Detection Mix is added per well. The plate is sealed, incubated for 1 hour at room temperature, and then read on an appropriate plate reader. Data is analyzed and IC50s are generated using GraphPad Prism 5. […] For PI3K α, β, δ, and γ, the nM concentration of inhibitor to reach IC50 is provided.
# p110γ = p110γ (Homo sapiens (Human), UniProt P48736); test: PI 3-Kinase (human) HTRF assay, p110γ
# Chain of p110γ (P48736 whole entry): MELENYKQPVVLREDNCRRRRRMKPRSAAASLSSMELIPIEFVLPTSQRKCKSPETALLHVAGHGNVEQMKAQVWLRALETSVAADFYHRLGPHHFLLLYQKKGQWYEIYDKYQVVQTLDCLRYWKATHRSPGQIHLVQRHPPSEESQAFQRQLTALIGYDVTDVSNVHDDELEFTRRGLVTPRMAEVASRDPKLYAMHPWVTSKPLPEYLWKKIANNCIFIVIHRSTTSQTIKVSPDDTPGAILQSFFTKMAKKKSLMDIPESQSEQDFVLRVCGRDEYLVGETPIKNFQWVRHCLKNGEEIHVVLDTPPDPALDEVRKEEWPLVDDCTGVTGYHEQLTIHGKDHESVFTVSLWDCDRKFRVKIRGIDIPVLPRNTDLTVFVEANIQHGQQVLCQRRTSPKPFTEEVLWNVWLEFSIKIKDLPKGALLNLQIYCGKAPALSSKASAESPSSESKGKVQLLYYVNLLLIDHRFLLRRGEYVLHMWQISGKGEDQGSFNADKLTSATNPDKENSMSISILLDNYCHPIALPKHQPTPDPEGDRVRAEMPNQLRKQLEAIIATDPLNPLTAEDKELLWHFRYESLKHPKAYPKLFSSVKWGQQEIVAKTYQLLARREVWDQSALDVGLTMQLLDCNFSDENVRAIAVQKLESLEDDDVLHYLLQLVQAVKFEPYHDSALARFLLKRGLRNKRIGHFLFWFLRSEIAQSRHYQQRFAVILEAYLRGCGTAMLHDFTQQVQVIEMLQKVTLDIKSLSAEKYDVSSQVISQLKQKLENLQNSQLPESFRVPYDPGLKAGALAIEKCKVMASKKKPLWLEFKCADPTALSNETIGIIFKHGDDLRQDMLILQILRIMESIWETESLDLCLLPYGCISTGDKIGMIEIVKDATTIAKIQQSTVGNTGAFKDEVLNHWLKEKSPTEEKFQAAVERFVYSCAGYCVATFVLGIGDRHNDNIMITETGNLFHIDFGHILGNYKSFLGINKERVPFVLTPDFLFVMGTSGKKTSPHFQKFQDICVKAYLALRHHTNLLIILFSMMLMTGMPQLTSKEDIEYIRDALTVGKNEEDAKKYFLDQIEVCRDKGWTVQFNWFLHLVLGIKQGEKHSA
# [1] = in vitro, read-out: PI3K α IC50
# [2] = in vitro, read-out: PI3K β IC50
# [3] = in vitro, read-out: PI3K δ IC50
# [4] = in vitro, read-out: PI3K γ IC50
# Chain of p110β/p85α (P42338 whole entry): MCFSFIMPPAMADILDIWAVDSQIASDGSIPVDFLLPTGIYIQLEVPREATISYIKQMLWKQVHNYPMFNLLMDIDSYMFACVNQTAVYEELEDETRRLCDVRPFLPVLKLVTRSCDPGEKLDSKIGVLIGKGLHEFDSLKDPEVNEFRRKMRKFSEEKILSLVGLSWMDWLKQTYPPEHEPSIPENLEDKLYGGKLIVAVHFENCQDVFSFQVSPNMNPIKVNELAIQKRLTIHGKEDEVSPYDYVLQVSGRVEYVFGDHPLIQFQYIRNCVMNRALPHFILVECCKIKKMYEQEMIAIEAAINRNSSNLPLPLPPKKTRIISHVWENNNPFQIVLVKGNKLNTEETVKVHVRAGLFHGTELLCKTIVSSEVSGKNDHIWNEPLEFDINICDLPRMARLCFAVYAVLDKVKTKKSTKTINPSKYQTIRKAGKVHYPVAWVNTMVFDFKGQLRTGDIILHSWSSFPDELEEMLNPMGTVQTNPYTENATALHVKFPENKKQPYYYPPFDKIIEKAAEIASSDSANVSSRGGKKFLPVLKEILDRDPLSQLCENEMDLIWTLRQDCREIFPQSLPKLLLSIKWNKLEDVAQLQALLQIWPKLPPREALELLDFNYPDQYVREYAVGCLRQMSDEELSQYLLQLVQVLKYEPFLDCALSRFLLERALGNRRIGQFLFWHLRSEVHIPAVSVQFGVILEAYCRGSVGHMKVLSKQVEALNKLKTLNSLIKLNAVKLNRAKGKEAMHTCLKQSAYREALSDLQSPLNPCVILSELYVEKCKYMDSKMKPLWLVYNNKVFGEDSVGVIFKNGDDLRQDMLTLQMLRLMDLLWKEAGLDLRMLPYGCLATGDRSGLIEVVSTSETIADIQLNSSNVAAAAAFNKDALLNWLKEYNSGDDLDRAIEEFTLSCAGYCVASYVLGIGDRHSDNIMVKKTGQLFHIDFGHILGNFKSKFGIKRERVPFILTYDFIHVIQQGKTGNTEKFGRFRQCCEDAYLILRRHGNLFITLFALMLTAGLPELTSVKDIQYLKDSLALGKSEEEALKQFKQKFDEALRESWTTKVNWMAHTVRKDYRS
# Chain of p110β/p85α (P27986 whole entry partner): as the sequence (P27986 whole entry partner) above
# Chain of p110α/p85α (P42336 whole entry): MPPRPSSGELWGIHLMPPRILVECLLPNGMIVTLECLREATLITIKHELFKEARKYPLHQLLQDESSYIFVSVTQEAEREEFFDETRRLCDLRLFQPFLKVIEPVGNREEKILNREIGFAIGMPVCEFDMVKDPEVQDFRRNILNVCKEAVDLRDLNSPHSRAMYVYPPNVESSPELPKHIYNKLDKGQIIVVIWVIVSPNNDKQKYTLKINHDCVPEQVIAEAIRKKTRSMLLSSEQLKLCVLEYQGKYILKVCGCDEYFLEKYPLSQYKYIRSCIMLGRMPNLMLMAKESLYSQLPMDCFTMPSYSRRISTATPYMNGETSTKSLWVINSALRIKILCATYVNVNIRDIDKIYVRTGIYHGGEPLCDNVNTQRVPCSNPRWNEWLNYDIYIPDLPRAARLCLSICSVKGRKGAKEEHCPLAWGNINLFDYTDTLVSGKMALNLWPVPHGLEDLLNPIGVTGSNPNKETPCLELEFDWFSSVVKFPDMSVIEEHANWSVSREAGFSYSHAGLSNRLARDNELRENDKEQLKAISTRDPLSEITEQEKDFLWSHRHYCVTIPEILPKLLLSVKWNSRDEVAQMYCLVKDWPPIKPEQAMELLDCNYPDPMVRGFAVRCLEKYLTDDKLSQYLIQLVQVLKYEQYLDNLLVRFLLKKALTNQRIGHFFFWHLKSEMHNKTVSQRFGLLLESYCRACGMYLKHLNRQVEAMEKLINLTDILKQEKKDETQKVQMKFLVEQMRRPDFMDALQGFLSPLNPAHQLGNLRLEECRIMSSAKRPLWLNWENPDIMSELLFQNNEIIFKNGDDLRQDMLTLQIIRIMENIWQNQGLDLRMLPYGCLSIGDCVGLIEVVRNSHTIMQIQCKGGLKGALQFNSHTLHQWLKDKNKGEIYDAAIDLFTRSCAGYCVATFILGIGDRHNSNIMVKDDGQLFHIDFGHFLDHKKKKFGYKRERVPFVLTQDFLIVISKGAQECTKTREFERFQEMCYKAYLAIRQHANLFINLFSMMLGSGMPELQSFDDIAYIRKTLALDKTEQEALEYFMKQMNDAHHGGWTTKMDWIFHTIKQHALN
# Chain of p110α/p85α (P27986 whole entry partner): as the sequence (P27986 whole entry partner) above
SMILES,IC50 (p110α/p85α; [1]) [µM],IC50 (p110β/p85α; [2]) [µM],IC50 (p110δ/p85α; [3]) [µM],IC50 (p110γ; [4]) [µM],IC50 (p110α/p85α; read-out: PI3K α In Vitro IC50) [µM],IC50 (p110β/p85α; read-out: PI3K β In Vitro IC50) [µM],IC50 (p110δ/p85α; read-out: PI3K δ In Vitro IC50) [µM],IC50 (p110γ; read-out: PI3K γ In Vitro IC50) [µM]
CN1CCN([C@H]2CCN(c3cnc4ccc(-c5ccc6oc(N)nc6c5)cc4n3)C2)CC1 [compound 381],< 0.1,< 1,< 10,< 10,,,,
CN(C)[C@H]1CCN(c2cnc3ccc(-c4ccc5oc(N)nc5c4)cc3n2)C1 [compound 382],< 0.1,< 1,< 10,< 1,,,,
Nc1nc2cc(-c3ccc4ncc(N5CCn6cccc6C5)nc4c3)ccc2o1 [compound 394],< 0.1,< 0.1,< 1,< 0.1,,,,
Cc1cc(-c2ccc3oc(N)nc3c2)cc2c(-c3ccncc3)cnn12 [compound 397],,,,,< 0.1,< 1,< 1,< 0.1
Nc1nc2cc(-c3ccn4ncc(C(=O)N5CCC(N6CCOCC6)CC5)c4c3)ccc2o1 [compound 398],,,,,< 1,< 10,< 10,< 10
CC(Oc1nc(-c2ccc3ncc(C(=O)N4CCOCC4)n3c2)cnc1N)C(F)(F)F (centres unmarked) [compound 411],,,,,< 0.1,< 10,< 10,< 1
Nc1nc2cc(-c3ccc4ncc(N5CCNC(C(F)F)C5)nc4c3)ccc2o1 (centres unmarked) [compound 413],,,,,< 0.1,< 1,< 10,< 1
COc1ncc(-c2ccc3ncc(C(=O)N4CCOCC4)n3c2)cc1NS(C)(=O)=O [compound 416],,,,,< 0.1,< 10,< 10,< 1
COc1ncc(-c2ccc3ncc(C(=O)N4CCOCC4)n3c2)cc1NS(=O)(=O)c1ccc(F)cc1 [compound 421],,,,,< 0.1,< 1,< 0.1,< 0.1
COc1ncc(-c2ccc3ncc(C(=O)N4CCOCC4)n3c2)cc1NS(=O)(=O)c1ccccc1F [compound 422],,,,,< 0.1,< 10,< 1,< 0.1
COc1ncc(-c2ccc3ncc(C(=O)N4CCOCC4)n3c2)cc1NS(=O)(=O)c1cccc(F)c1 [compound 423],,,,,< 0.1,< 1,< 0.1,< 0.1
Nc1nc2ccc(-c3cc(F)c4oc(N)nc4c3)cc2o1 [compound 433],,,,,< 1,< 1,< 10,< 0.1
CC(=O)Nc1nc2ccc(-c3cc(F)c4oc(N)nc4c3)cc2s1 [compound 434],,,,,< 0.1,< 0.1,< 0.1,< 0.1
Nc1nc2cc(-c3ccc4nc(N)sc4c3)cc(F)c2o1 [compound 436],,,,,< 0.1,< 0.1,< 1,< 0.1
O=C(c1cnc2ccc(-c3ccc(Cl)c(NS(=O)(=O)c4ccc(F)cc4F)c3)cn12)N1CCOCC1 [compound 461],,,,,< 1,< 10,< 10,< 10
CO[C@H]1CCN(C(=O)c2cnc3ccc(-c4ccc5oc(N)nc5c4)cn23)C1 [compound 463],,,,,< 0.1,< 10,< 10,< 1
Nc1nc2cc(-c3ccc4ncc(C(=O)N5CC[C@@H](N6CCOCC6)C5)n4c3)ccc2o1 [compound 466],,,,,< 1,< 10,< 10,< 1
C[C@@H]1CCCN1C(=O)c1cnc2ccc(-c3ccc4oc(N)nc4c3)cn12 [compound 481],,,,,< 0.1,< 10,< 10,< 1
CC(C)N1CCC(n2cnc3ccc(-c4cncc(NS(=O)(=O)c5ccc(F)cc5F)c4)cc3c2=O)CC1 [compound 519],,,,,< 1,< 10,< 10,< 1
CC(C)N1CCC(n2cnc3ccc(-c4cnc(Cl)c(NS(=O)(=O)c5ccccc5)c4)cc3c2=O)CC1 [compound 521],,,,,< 0.1,< 0.1,< 0.1,< 1
